These results are taken from patent US10544140B2, “Pharmaceutical composition containing, as active ingredient, 7-azaindolin-2-one derivative or pharmaceutically acceptable salt thereof” (LG CHEM, LTD., priority 2015, dated 2020).

Molecules are shown by their SMILES.

Test [1] concerns PANC-1 (human pancreatic cancer cell line). The test is described as follows: Cytotoxicity test by MTT assay, PANC-1. The class given is cell-based. To be noted: Homo sapiens; PANC-1, 30 μM, 48 h; read-out: Cell viability (% inhibition). How it is done:
(§1) A cytotoxicity test was measured by MTT assay. Each cell line was cultured in a 96-well plate at a density of 1×10^4 cells/well. […] MTT (3-(4,5-dimethylthiazol-2-yl)-2,5-diphenyltetrazolium bromide) solution (5 mg/mL) was added to each well and reacted for 4 hours in an incubator. […] After reacting in an incubator for 30 minutes, the formation of formazan was quantified using a microplate reader at an absorbance of 540 nm. […] At this time, sunitinib was used as a control group. […] The human cancer cell lines used herein are MCF-7 (breast cancer), MDA-MB-231 (breast cancer), HT-29 (colon cancer), DU145 (prostate cancer), U937 (myeloid leukemia), A549 (lung cancer), PANC-1 (pancreatic cancer) and MIA PaCa-2 (pancreatic cancer).

In test [2] the test system is MCF-7 (human breast cancer cell line). The test is described as follows: Cytotoxicity test by MTT assay, MCF-7. The class given is cell-based. Conditions: Homo sapiens, MCF7; MCF-7, 30 μM, 48 h; read-out: Cell viability (% inhibition). How it is done:
as §1
A general note: Tetrazolium assays rely on reduction of a dye to a coloured formazan, in cell work by metabolically active cells.

As for `CCC(/C=C1\C(=O)Nc2nc(C)c(O)c(C)c21)CC` [Compound I-02, (Z)-3-(2-Ethylbutylidene)-5-hydroxy-4,6-dimethyl-1H-pyrrolo[2,3-b]pyridin-2(3H)-one], the cytotoxicity at 30 µM in test [1] stood at 44.9%; in test [2], 30.5%.
On to `CC(C)=C/C=C1\C(=O)Nc2nc(C)c(O)c(C)c21` [Compound I-03, (Z)-5-Hydroxy-4,6-dimethyl-3-(3-methylbut-2-enylidene)-1H-pyrrolo[2,3-b]pyridin-2(3H)-one], for which the cytotoxicity at 30 µM in test [1] worked out at 37.5%; in test [2], 6.6%.
On to `COc1cc(/C=C/C=C2\C(=O)Nc3nc(C)c(O)c(C)c32)ccc1O` [Compound I-04, (Z)-5-Hydroxy-3-((E)-3-(4-hydroxy-3-methoxyphenyl)allylidene)-4,6-dimethyl-1H-pyrrolo[2,3-b]pyridin-2(3H)-one], for which the cytotoxicity at 30 µM turned out to be 24.4% in test [1] and 6.9% in test [2].
The matching figures for `Cc1nc2c(c(C)c1O)/C(=C/C1CCCCC1)C(=O)N2` [Compound I-05, (Z)-3-(Cyclohexylmethylene)-5-hydroxy-4,6-dimethyl-1H-pyrrolo[2,3-b]pyridin-2(3H)-one]: 49% and 10%.
On to `Cc1ccc(/C=C2\C(=O)Nc3nc(C)c(O)c(C)c32)cc1` [Compound I-06, (Z)-5-Hydroxy-4,6-dimethyl-3-(4-methylbenzylidene)-1H-pyrrolo[2,3-b]pyridin-2(3H)-one], for which the cytotoxicity at 30 µM in test [1] worked out at 29.1%; in test [2], 32.3%.
The corresponding values for `Cc1nc2c(c(C)c1O)/C(=C/c1ccccc1[N+](=O)[O-])C(=O)N2` [Compound I-07, (Z)-5-Hydroxy-4,6-dimethyl-3-(2-nitrobenzylidene)-1H-pyrrolo[2,3-b]pyridin-2(3H)-one] are 27.8% and 23.9%.
Turning to `Cc1nc2c(c(C)c1O)/C(=C/c1ccc([N+](=O)[O-])cc1)C(=O)N2` [Compound I-08, (Z)-5-Hydroxy-4,6-dimethyl-3-(4-nitrobenzylidene)-1H-pyrrolo[2,3-b]pyridin-2(3H)-one], the cytotoxicity at 30 µM in test [1] was 32.5%; in test [2], 16.3%.
The matching figures for `Cc1nc2c(c(C)c1O)/C(=C/c1ccc(F)cc1)C(=O)N2` [Compound I-09, (Z)-3-(4-Fluorobenzylidene)-5-hydroxy-4,6-dimethyl-1H-pyrrolo[2,3-b]pyridin-2(3H)-one]: 51.8% and 48.3%.
The corresponding values for `Cc1nc2c(c(C)c1O)/C(=C/c1ccc(Cl)cc1)C(=O)N2` [Compound I-10, (Z)-3-(4-Chlorobenzylidene)-5-hydroxy-4,6-dimethyl-1H-pyrrolo[2,3-b]pyridin-2(3H)-one] are 44.9% and 51.7%.
The corresponding values for `Cc1nc2c(c(C)c1O)/C(=C/c1ccccc1O)C(=O)N2` [Compound I-11, (Z)-5-Hydroxy-3-(2-hydroxybenzylidene)-4,6-dimethyl-1H-pyrrolo[2,3-b]pyridin-2(3H)-one] are 42% and 29.2%.
Turning to `COc1ccccc1/C=C1\C(=O)Nc2nc(C)c(O)c(C)c21` [Compound I-12, (Z)-5-hydroxy-3-(2-methoxybenzylidene)-4,6-dimethyl-1H-pyrrolo[2,3-b]pyridin-2(3H)-one], the values for the cytotoxicity at 30 µM in test [1] and in test [2] were 10.2% and 30.7%, respectively.
The matching figures for `COc1cccc(/C=C2\C(=O)Nc3nc(C)c(O)c(C)c32)c1` [Compound I-13, (Z)-5-Hydroxy-3-(3-methoxybenzylidene)-4,6-dimethyl-1H-pyrrolo[2,3-b]pyridin-2(3H)-one]: 46.4% and 29.6%.
Consider `COc1ccc(/C=C2\C(=O)Nc3nc(C)c(O)c(C)c32)cc1` [Compound I-14, (Z)-5-Hydroxy-3-(4-methoxybenzylidene)-4,6-dimethyl-1H-pyrrolo[2,3-b]pyridin-2(3H)-one], for which the cytotoxicity at 30 µM was determined as 36.3% in test [1] and 23.9% in test [2].
